For one experiment, the target named is human CB2 receptors (Homo sapiens (Human), UniProt P34972). Kind of experiment: cAMP assay, CHO cells expressing human CB2 receptors. In kind it is cell-based. As to conditions: CHO cells expressing human CB2, cAMP; read-out: human CB2 EC50. In short, it runs like this:
(§1)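 Agonist EC50 values come from cAMP levels measured in intact CHO cells. Compounds act for 30 min at 30 °C in the presence of 1 mM IBMX, and cAMP is then detected by time-resolved energy transfer after lysis.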

A further experiment concerns the target human CB1 receptors (Homo sapiens (Human), UniProt P21554). Kind of experiment: cAMP assay, CHO cells expressing human CB1 receptors. Type of experiment: cell-based. To be noted: CHO cells expressing human CB1, cAMP; read-out: human CB1 EC50. The method in brief:
as §1
On the technique in general: cAMP levels reflect the balance of adenylyl cyclase and phosphodiesterase activity.

SMILES strings stand for the structures. A value given as a limit tells only on which side of the number the result lay.

Sequence of human CB1 receptors (P21554 whole entry): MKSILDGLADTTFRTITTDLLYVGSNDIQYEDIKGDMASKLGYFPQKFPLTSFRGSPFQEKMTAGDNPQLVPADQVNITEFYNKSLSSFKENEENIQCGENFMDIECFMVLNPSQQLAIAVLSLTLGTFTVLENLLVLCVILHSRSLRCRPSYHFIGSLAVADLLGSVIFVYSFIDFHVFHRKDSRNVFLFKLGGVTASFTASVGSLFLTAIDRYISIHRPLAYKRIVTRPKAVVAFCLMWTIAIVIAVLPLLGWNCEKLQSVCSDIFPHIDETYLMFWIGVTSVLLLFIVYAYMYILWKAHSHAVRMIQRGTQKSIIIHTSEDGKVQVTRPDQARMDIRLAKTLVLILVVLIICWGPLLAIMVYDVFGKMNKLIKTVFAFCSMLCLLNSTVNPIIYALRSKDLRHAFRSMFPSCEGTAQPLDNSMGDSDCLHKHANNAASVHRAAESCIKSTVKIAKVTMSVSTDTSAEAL
Sequence of human CB2 receptors (P34972 whole entry): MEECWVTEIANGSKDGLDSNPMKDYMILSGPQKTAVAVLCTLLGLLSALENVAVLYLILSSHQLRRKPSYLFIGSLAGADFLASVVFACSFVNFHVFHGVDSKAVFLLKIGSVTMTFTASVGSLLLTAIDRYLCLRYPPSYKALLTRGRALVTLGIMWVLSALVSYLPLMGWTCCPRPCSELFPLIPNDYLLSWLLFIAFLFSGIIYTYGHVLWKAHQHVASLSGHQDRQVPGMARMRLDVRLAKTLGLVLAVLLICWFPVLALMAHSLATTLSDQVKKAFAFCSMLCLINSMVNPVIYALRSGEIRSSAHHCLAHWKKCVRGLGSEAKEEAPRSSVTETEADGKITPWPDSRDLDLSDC

As to `Cc1ccc(C(=O)N[C@@H](CC2CC2)C(N)=O)nc1OCC1CC1` [Example 130, 6-Cyclopropylmethoxy-5-methyl-pyridine-2-carboxylic acid ((S)-1-carbamoyl-2-cyclopropyl-ethyl)-amide], the half-maximal effective concentration (EC50) is 50 nM on human CB2 receptors and above 10000 nM at human CB1 receptors.

For `CC(C)C[C@H](NC(=O)c1ccc(N2CC(O)C2)c(OCC2CC2)n1)C(N)=O` [Example 131, 6-Cyclopropylmethoxy-5-(3-hydroxy-azetidin-1-yl)-pyridine-2-carboxylic acid ((S)-1-carbamoyl-3-methyl-butyl)-amide], the EC50 was 78.4 nM on human CB2 receptors and above 10000 nM on human CB1 receptors.

On to `CC(C)C[C@H](NC(=O)c1ccc(N2CC(F)(F)C2)c(OCC2CC2)n1)C(N)=O` [Example 132, 6-Cyclopropylmethoxy-5-(3,3-difluoro-azetidin-1-yl)-pyridine-2-carboxylic acid ((S)-1-carbamoyl-3-methyl-butyl)-amide], for which the EC50 on human CB2 receptors is 0.8 nM; on human CB1 receptors it was 1130 nM.

Regarding `NC(=O)[C@H](CC1CC1)NC(=O)c1ccc(NC2CC2)c(OCC2CC2)n1` [Example 133, 5-Cyclopropylamino-6-cyclopropylmethoxy-pyridine-2-carboxylic acid ((S)-1-carbamoyl-2-cyclopropyl-ethyl)-amide], the EC50 on human CB2 receptors is 37.7 nM; on human CB1 receptors, above 10000 nM.

With `CC(C)C[C@H](NC(=O)c1ccc(NC2CC2)c(OCC2CC2)n1)C(N)=O` [Example 134, 5-Cyclopropylamino-6-cyclopropylmethoxy-pyridine-2-carboxylic acid ((S)-1-carbamoyl-3-methyl-butyl)-amide], the 50% effective concentration (EC50) at human CB2 receptors worked out at 5.1 nM; at human CB1 receptors it was 151 nM.

As for `CC(C)(O)[C@H](CC1CC1)NC(=O)c1ccc(N2CC(F)(F)C2)c(OCC2CC2)n1` [Example 135, 6-Cyclopropylmethoxy-5-(3,3-difluoro-azetidin-1-yl)-pyridine-2-carboxylic acid ((S)-1-cyclopropylmethyl-2-hydroxy-2-methyl-propyl)-amide], the EC50 on human CB2 receptors was 38.2 nM; at human CB1 receptors, above 10000 nM.

As for `NC(=O)[C@H](CC1CC1)NC(=O)c1ccc(C2CCOC2)c(OCC2CC2)n1` (stereo partly drawn) [Example 136, 6-Cyclopropylmethoxy-5-(tetrahydro-furan-3-yl)-pyridine-2-carboxylic acid ((S)-1-carbamoyl-2-cyclopropyl-ethyl)-amide], the half-maximal effective concentration (EC50) is 65.4 nM on human CB2 receptors and above 10000 nM on human CB1 receptors.

Regarding `O=C(NC1CCCCC1O)c1ccc(N2CC(F)(F)C2)c(OCC2CC2)n1` (centres unmarked) [Example 137, 6-Cyclopropylmethoxy-5-(3,3-difluoro-azetidin-1-yl)-pyridine-2-carboxylic acid (2-hydroxy-cyclohexyl)-amide], the concentration giving a half-maximal response (EC50) at human CB2 receptors was 211 nM; on human CB1 receptors, above 10000 nM.

With `Cc1nc([C@H](CC2CC2)NC(=O)c2ccc(N3CC(F)(F)C3)c(OCC3CC3)n2)no1` [Example 138, 6-Cyclopropylmethoxy-5-(3,3-difluoro-azetidin-1-yl)-pyridine-2-carboxylic acid [(S)-2-cyclopropyl-1-(5-methyl-[1,2,4]oxadiazol-3-yl)-ethyl]-amide], the figures for the EC50 at human CB2 receptors and at human CB1 receptors were 26.7 nM and above 10000 nM, respectively.

Consider `CC(C)(O)[C@H](CC1CC1)NC(=O)c1ccc(C2CC2)c(OCC2CC2)n1` [Example 139, 5-Cyclopropyl-6-cyclopropylmethoxy-pyridine-2-carboxylic acid ((S)-1-cyclopropylmethyl-2-hydroxy-2-methyl-propyl)-amide], for which the 50% effective concentration (EC50) is 113 nM at human CB2 receptors and above 10000 nM on human CB1 receptors.

Turning to `CC(C)C[C@H](NC(=O)c1ccc(N2CC(F)(F)C2)c(-c2cccc(Cl)c2)n1)C(N)=O` [Example 140, 6-(3-Chloro-phenyl)-5-(3,3-difluoro-azetidin-1-yl)-pyridine-2-carboxylic acid ((S)-1-carbamoyl-3-methyl-butyl)-amide], the EC50 was 305 nM at human CB2 receptors and above 10000 nM on human CB1 receptors.

With `CC(C)(CO)NC(=O)c1ccc(C2CCOC2)c(OCC2CC2)n1` (centres unmarked) [Example 141, 6-Cyclopropylmethoxy-5-(tetrahydro-furan-3-yl)-pyridine-2-carboxylic acid (2-hydroxy-1,1-dimethyl-ethyl)-amide], the concentration for a half-maximal effect (EC50) is 459 nM at human CB2 receptors and above 10000 nM on human CB1 receptors.

With `COCCOc1nc(C(=O)N[C@@H](CC(C)C)C(N)=O)ccc1C1CC1` [Example 142, 5-Cyclopropyl-6-(2-methoxy-ethoxy)-pyridine-2-carboxylic acid ((S)-1-carbamoyl-3-methyl-butyl)-amide], the EC50 at human CB2 receptors is 14.4 nM; at human CB1 receptors, above 10000 nM.

On to `CC1(C)CCc2ccc(C(=O)NC[C@](C)(O)C3CC3)nc2C1` [Example 143, 7,7-Dimethyl-5,6,7,8-tetrahydro-quinoline-2-carboxylic acid ((R)-2-cyclopropyl-2-hydroxy-propyl)-amide], for which the concentration for a half-maximal effect (EC50) was 410 nM on human CB2 receptors and above 10000 nM at human CB1 receptors.

Regarding `Cc1nc(C(C)(C)NC(=O)c2ccc3c(n2)CC(C)(C)CC3)no1` [Example 144, 7,7-dimethyl-N-(2-(5-methyl-1,2,4-oxadiazol-3-yl)propan-2-yl)-5,6,7,8-tetrahydroquinoline-2-carboxamide], the values for the half-maximal effective concentration (EC50) on human CB2 receptors and at human CB1 receptors were 22.8 nM and 739 nM, respectively.

For `CC1(C)CCc2ccc(C(=O)NC(C)(C)CO)nc2C1` [Example 145, N-(1-hydroxy-2-methylpropan-2-yl)-7,7-dimethyl-5,6,7,8-tetrahydroquinoline-2-carboxamide], the EC50 is 289 nM at human CB2 receptors and above 10000 nM at human CB1 receptors.

Consider `O=C(N[C@@H](CC1CC1)c1nccs1)c1ccc(N2CC(F)(F)C2)c(OCC2CC2)n1` [Example 146, 6-Cyclopropylmethoxy-5-(3,3-difluoro-azetidin-1-yl)-pyridine-2-carboxylic acid ((S)-2-cyclopropyl-1-thiazol-2-yl-ethyl)-amide], for which the EC50 on human CB2 receptors is 36.6 nM; on human CB1 receptors it was above 10000 nM.

For `O=C(NCc1ccccn1)c1ccc(N2CC(F)(F)C2)c(OCC2CC2)n1` [Example 147, 6-Cyclopropylmethoxy-5-(3,3-difluoro-azetidin-1-yl)-pyridine-2-carboxylic acid (pyridin-2-ylmethyl)-amide], the EC50 on human CB2 receptors is 922 nM; on human CB1 receptors, above 10000 nM.

As to `O=C(c1ccc(N2CC(F)(F)C2)c(OCC2CC2)n1)N1CCC[C@H]1CO` [Example 149, [6-Cyclopropylmethoxy-5-(3,3-difluoro-azetidin-1-yl)-pyridin-2-yl]-((S)-2-hydroxymethyl-pyrrolidin-1-yl)-methanone], the EC50 at human CB2 receptors was 174 nM; on human CB1 receptors it was above 10000 nM.

Turning to `CC(C)C[C@H](NC(=O)c1ccc(C2(O)COC2)c(OCC2CC2)n1)C(N)=O` [Example 150, 6-Cyclopropylmethoxy-5-(3-hydroxy-oxetan-3-yl)-pyridine-2-carboxylic acid ((S)-1-carbamoyl-3-methyl-butyl)-amide], the EC50 at human CB2 receptors is 157 nM; on human CB1 receptors it was above 10000 nM.

For `Cc1nc(C(C)(C)NC(=O)c2ccc(C3CCOC3)c(-c3cccc(Cl)c3)n2)no1` (centres unmarked) [Example 151, 6-(3-Chloro-phenyl)-5-(tetrahydro-furan-3-yl)-pyridine-2-carboxylic acid [1-methyl-1-(5-methyl-[1,2,4]oxadiazol-3-yl)-ethyl]-amide], the concentration for a half-maximal effect (EC50) on human CB2 receptors is 351 nM; at human CB1 receptors, above 10000 nM.

For `COCCOCC(C)(C)NC(=O)c1ccc(N2CC(F)(F)C2)c(-c2cccc(Cl)c2)n1` [Example 152, 6-(3-Chloro-phenyl)-5-(3,3-difluoro-azetidin-1-yl)-pyridine-2-carboxylic acid [2-(2-methoxy-ethoxy)-1,1-dimethyl-ethyl]-amide], the EC50 was 442 nM at human CB2 receptors and above 10000 nM on human CB1 receptors.

Turning to `COCCOc1nc(C(=O)NC(C)(C)c2noc(C)n2)ccc1C1CC1` [Example 153, 5-Cyclopropyl-6-(2-methoxy-ethoxy)-pyridine-2-carboxylic acid [1-methyl-1-(5-methyl-[1,2,4]oxadiazol-3-yl)-ethyl]-amide], the EC50 was 293 nM on human CB2 receptors and above 10000 nM at human CB1 receptors.

On to `CC(C)(CCN1CCOCC1)NC(=O)c1ccc(C2CC2)c(OCC2CC2)n1` [Example 154, 5-Cyclopropyl-6-cyclopropylmethoxy-pyridine-2-carboxylic acid (1,1-dimethyl-3-morpholin-4-yl-propyl)-amide], for which the EC50 at human CB2 receptors is 150 nM; on human CB1 receptors it was above 10000 nM.

As for `CC(C)C[C@H](NC(=O)c1ccc(C2CC2)c(Cc2ccc(F)cc2)n1)C(N)=O` [Example 155, 5-Cyclopropyl-6-(4-fluoro-benzyl)-pyridine-2-carboxylic acid ((S)-1-carbamoyl-3-methyl-butyl)-amide], the EC50 worked out at 0.7 nM at human CB2 receptors and 123 nM on human CB1 receptors.

For the compound `CC(C)(NC(=O)c1ccc(N2CC(F)(F)C2)c(-c2cccc(Cl)c2)n1)c1nccs1` [Example 156, 6-(3-Chloro-phenyl)-5-(3,3-difluoro-azetidin-1-yl)-pyridine-2-carboxylic acid (1-methyl-1-thiazol-2-yl-ethyl)-amide], the EC50 is 334 nM at human CB2 receptors and above 10000 nM at human CB1 receptors.

With `COCCOC[C@H](CC1CC1)NC(=O)c1ccc(N2CC(F)(F)C2)c(OCC2CC2)n1` [Example 157, 6-Cyclopropylmethoxy-5-(3,3-difluoro-azetidin-1-yl)-pyridine-2-carboxylic acid [(S)-2-cyclopropyl-1-(2-methoxy-ethoxymethyl)-ethyl]-amide], the concentration giving a half-maximal response (EC50) on human CB2 receptors was 27.4 nM; on human CB1 receptors, above 10000 nM.

Take `COCCOc1nc(C(=O)N[C@@H](CC(C)C)C(N)=O)ccc1N1CC(F)(F)C1` [Example 158, 5-(3,3-Difluoro-azetidin-1-yl)-6-(2-methoxy-ethoxy)-pyridine-2-carboxylic acid ((S)-1-carbamoyl-3-methyl-butyl)-amide]: the EC50 on human CB2 receptors is 22.9 nM; at human CB1 receptors, above 10000 nM.

Usually EC50 stands for the midpoint of the concentration-response curve.

Values taken from patent US9290451B2 (Hoffmann-La Roche Inc., priority 2011, dated 2016).
